One assay addresses T1, human PRS protein (His-Avi-hEPRS (998-1512)) (Homo sapiens, UniProt P07814).
T1 construct: to construct His-Avi-hEPRS (998-1512) expression plasmid; His tag (N); Avi tag (N); TEV cleavage site (ENLYFQG, then S; inferred from the forward primer hEPRS-TEV-NheF) (N); made in house; host or cells: E. coli BL21(DE3)
T1 sequence (P07814 998-1512 limits assumed): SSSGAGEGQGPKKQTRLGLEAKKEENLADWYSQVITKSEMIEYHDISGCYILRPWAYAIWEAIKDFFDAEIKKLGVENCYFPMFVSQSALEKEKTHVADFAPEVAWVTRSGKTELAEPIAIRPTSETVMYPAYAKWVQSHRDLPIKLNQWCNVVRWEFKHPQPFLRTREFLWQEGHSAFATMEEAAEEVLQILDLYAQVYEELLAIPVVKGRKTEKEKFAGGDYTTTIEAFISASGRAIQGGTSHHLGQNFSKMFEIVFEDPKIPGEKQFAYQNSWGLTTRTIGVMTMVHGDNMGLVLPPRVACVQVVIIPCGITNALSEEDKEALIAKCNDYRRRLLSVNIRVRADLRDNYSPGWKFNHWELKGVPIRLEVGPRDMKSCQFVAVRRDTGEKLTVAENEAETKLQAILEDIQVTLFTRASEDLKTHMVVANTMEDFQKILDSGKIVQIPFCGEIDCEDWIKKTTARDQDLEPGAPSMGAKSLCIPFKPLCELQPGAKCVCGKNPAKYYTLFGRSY
Kind of assay: PRS inhibitory activity ([32P]pyrophosphate exchange enzyme assay). To be noted: 300 nM test compound; 0.3 µM. Format: biochemical. As to the method: The PRS inhibitory activity of the compounds of the present invention was evaluated by the following method.
An expression plasmid of Catalytic Domain of human EPRS was obtained by PCR using human skeletal muscle cDNA Library (Takara Bio Inc.) as a template and 2 kinds of Primers 5′-[…]-3′ (hEPRS-TEV-NheF) (SEQ ID NO: 1) and 5′-[…]-3′ (hEPRS-St-Not-R) (SEQ ID NO: 2). PCR was performed using PrimeStar GXL DNA Polymerase (Takara Bio Inc.) and included (1) 98° C., 1 min, (2) 35 cycles of 98° C., 10 sec, 65° C., 10 sec, 72° C., 1 min, and (3) reaction at 72° C., 1 min. This was cleaved with Nhe I and Not I (Takara Bio Inc.) and inserted using Ligation High (TOYOBO CO., LTD.) into the Nhe I/Not I site of pET21a (Novagen) with His-Avitag inserted thereinto. This was introduced into ECOS JM109 (NIPPON GENE CO., LTD.) to construct His-Avi-hEPRS (998-1512) expression plasmid.
Recombinant human PRS protein was prepared by transforming the His-Avi-hEPRS (998-1512) expression plasmid prepared above into ECOS Competent E. coli BL21(DE3) (NIPPON GENE CO., LTD.). Escherichia coli obtained by transformation was inoculated into 300 mL of LB medium (1% peptone, 0.5% yeast extract, 0.5% sodium chloride, 0.01% ampicillin) and cultured at 30° C. for 16 hr. The obtained culture medium was transferred into a jar culture tank charged with 6 L of the main fermentation medium (0.3% potassium dihydrogen phosphate, 0.6% disodium hydrogen phosphate, 0.1% ammonium chloride, 0.05% sodium chloride, 0.024% magnesium sulfate, 0.02% NEWPOL LB-625, 1.5% sorbitol, 1.5% casamino acid, 0.5% yeast extract, 0.01% ampicillin) and culturing was started at 37° C., quantity of airflow 5 L/min, stirring rotating speed 400 rpm. At the time point when the turbidity of the culture medium reached about 550 Klett units, the culture temperature was lowered to 16° C., isopropyl-β-D-thiogalactopyranoside (IPTG) was added to the final concentration 0.1 mM, and culturing was performed for another 16 hr to induce expression of human PRS. After completion of culturing, the culture medium was centrifuged at 5,000 rpm for 10 min. The obtained human PRS expressing Escherichia coli was suspended in a buffer containing 50 mM Tris-HCl (pH 8.0), 150 mM NaCl, 1 mM DTT, 5 U/ml Benzonase, 20 mM Imidazole and sonicated using Sonifier (BRANSON). The homogenate was centrifuged (33,000×G, 60 min, Beckman Coulter), the obtained supernatant was subjected to adsorption by passage through Ni-NTA Superflow (QIAGEN) column equilibrated in advance with 50 mM Tris-HCl (pH 8.0), 300 mM NaCl, 1 mM DTT, and elution was performed with a buffer containing 50 mM Tris-HCl (pH 8.0), 300 mM NaCl, 1 mM DTT, 250 mM Imidazole. Furthermore, gel filtration was performed using Superdex200 pg column equilibrated in advance with a buffer containing 50 mM Tris-HCl (pH 8.0), 150 mM NaCl, 1 mM DTT, 10% glycerol to give purified human PRS protein. The protein concentration was measured using BCA Protein Assay Kit (PIERCE) and BSA as the standard.
A test compound was dissolved in 5 μL of an assay buffer (50 mM Tris-HCl (pH 7.5), 20 mM KCl, 1 mM DTT, 0.01% Tween 20) and incubated for 60 min with 5 μL of 40 nM human PRS protein dissolved in the assay buffer containing 40 mM MgCl2. An enzyme reaction of the human PRS protein was started by adding 10 μL of a substrate solution containing 300 μM ATP, 160 μM L-Proline, 400 μM pyrophosphate, [^32P]pyrophosphate (PerkinElmer) prepared to 1 MBq/mL. After incubation at room temperature for 30 min, the reaction was discontinued by adding 50 μL of discontinuation/washing solution (1M HCl, 200 mM sodium pyrophosphate) to the reaction mixture. The reaction solution was transferred to a filter plate (Merck Millipore, Billerica, Mass.) previously added with 200 μL of charcoal solution (0.5% HCl solution containing 10% charcoal (w/v)). […]
On to `Cn1cc(-c2cc(F)cc(CNC(=O)c3ncnc4nc(C5COCCO5)[nH]c34)c2)cn1` (stereo not shown) [Example 33, 8-(1,4-dioxan-2-yl)-N-(3-fluoro-5-(1-methyl-1H-pyrazol-4-yl)benzyl)-7H-purine-6-carboxamide], for which the “inhibitory rate (%) of PRS” value amounted to 99%.

Staying with this assay, now noted: 300 nM test compound; read-out: inhibitory rate (%) of PRS.
For the compound `Cn1cc(-c2cc(F)cc(CNC(=O)c3ncnc4nc(C5CCS(=O)(=O)C5)[nH]c34)c2)cn1` (stereo not shown) [Example 28, 8-(1,1-dioxidotetrahydrothiophen-3-yl)-N-(3-fluoro-5-(1-methyl-1H-pyrazol-4-yl)benzyl)-7H-purine-6-carboxamide], the inhibition at 0.3 µM is 101%.

For the compound `Cn1ncc2c(CNC(=O)c3nccc4nc(C5CCCC5)[nH]c34)cccc21` [Example 93, 2-cyclopentyl-N-((1-methyl-1H-indazol-4-yl)methyl)-3H-imidazo[4,5-c]pyridine-4-carboxamide], the inhibition at 0.3 µM came out at 91%.

In the case of `O=C(NCc1cccc(-c2ccccc2)c1)c1nccc2nc(C3CCCC3)[nH]c12` [Example 83, N-(biphenyl-3-ylmethyl)-2-cyclopentyl-3H-imidazo[4,5-c]pyridine-4-carboxamide], the inhibition at 0.3 µM is 98%.

Take `Cc1nc(C(=O)NCc2cc(F)cc(-c3cnn(C)c3)c2)cc(N2CC[C@@](C#N)(C3CC3)C2=O)n1` [Example 237, 6-((3S)-3-cyano-3-cyclopropyl-2-oxopyrrolidin-1-yl)-N-(3-fluoro-5-(1-methyl-1H-pyrazol-4-yl)benzyl)-2-methylpyrimidine-4-carboxamide]: the inhibition at 0.3 µM was determined as 74%.

Regarding `CCc1cc(N2CC[C@@](C#N)(C3CC3)C2=O)cc(C(=O)NCc2cc(F)cc(-c3cnn(C)c3)c2)n1` [Example 219, 4-((3S)-3-cyano-3-cyclopropyl-2-oxopyrrolidin-1-yl)-6-ethyl-N-(3-fluoro-5-(1-methyl-1H-pyrazol-4-yl)benzyl)pyridine-2-carboxamide], the inhibition at 0.3 µM worked out at 94%.

In the case of `Cc1cc(N2CCC(CO)(C3CC3)C2=O)cc(C(=O)NCc2cc(F)cc(-c3cnn(C)c3)c2)n1` (stereo not shown) [Example 235, 4-(3-cyclopropyl-3-(hydroxymethyl)-2-oxopyrrolidin-1-yl)-N-(3-fluoro-5-(1-methyl-1H-pyrazol-4-yl)benzyl)-6-methylpyridine-2-carboxamide], the inhibition at 0.3 µM worked out at 69%.

With `Cn1cc(-c2ccnc(CNC(=O)c3nccc4nc(C5CCCC5)n(C)c34)n2)cn1` [Example 146, 2-cyclopentyl-3-methyl-N-((4-(1-methyl-1H-pyrazol-4-yl)pyrimidin-2-yl)methyl)-3H-imidazo[4,5-c]pyridine-4-carboxamide], the inhibition at 0.3 µM came to 78%.

In the case of `O=C(NCc1cccc(Br)c1)c1nccc2nc(C3CCCC3)[nH]c12` [Example 82, N-(3-bromobenzyl)-2-cyclopentyl-3H-imidazo[4,5-c]pyridine-4-carboxamide], the inhibition at 0.3 µM amounted to 98%.

`Cn1cc(-c2cc(F)cc(CNC(=O)c3cc(N4CC[C@@](C#N)(C5CC5)C4=O)ccn3)c2)cn1` [Example 149, 4-((3S)-3-cyano-3-cyclopropyl-2-oxopyrrolidin-1-yl)-N-(3-fluoro-5-(1-methyl-1H-pyrazol-4-yl)benzyl)pyridine-2-carboxamide]: the inhibition at 0.3 µM was 95%.

For the compound `Cn1c(C2CCCC2)nc2ccnc(C(=O)NCc3ccccc3Cl)c21` [Example 85, N-(2-chlorobenzyl)-2-cyclopentyl-3-methyl-3H-imidazo[4,5-c]pyridine-4-carboxamide], the inhibition at 0.3 µM turned out to be 97%.

On to `Cc1cc(N2CC[C@@](C#N)(C3CC3)C2=O)cc(C(=O)NCc2cc(F)cc(-c3cncnc3)c2)n1` [Example 205, 4-((3S)-3-cyano-3-cyclopropyl-2-oxopyrrolidin-1-yl)-N-(3-fluoro-5-(pyrimidin-5-yl)benzyl)-6-methylpyridine-2-carboxamide], for which the inhibition at 0.3 µM worked out at 86%.

`Cn1ncc2cccc(CNC(=O)c3ncnc4nc(C5CCCC5)n(C)c34)c21` [Example 21, 8-cyclopentyl-7-methyl-N-((1-methyl-1H-indazol-7-yl)methyl)-7H-purine-6-carboxamide]: the inhibition at 0.3 µM turned out to be 92%.

The values above are taken from patent publication US10774083B2, “Heterocyclic amide compound” (TAKEDA PHARMACEUTICAL COMPANY LIMITED, priority 2016, dated 2020).
